Assay results: patent US10196412B2, “Probe for imaging PARP-1 activity” (The Board of Trustees of the Leland Stanford Junior …, priority 2014, dated 2019)

Legend:
PARG = PARG (Homo sapiens, UniProt Q86W56); assay: PARG-mediated degradation of PAR formed from probe (gel); type: biochemical; conditions: FIG. 4D
Text: FIG. 4A illustrates novel substrate-based PARP-1 probes assessed for in vitro PARP-1 activity and PARG-mediated degradation of PAR.

ARH3 = target: T1, ARH3 (Homo sapiens, UniProt Q9NX46); assay: ARH3-mediated degradation of PAR formed from probe (gel); type: biochemical; conditions: FIG. 4D
T1 sequence (Q9NX46 1-363): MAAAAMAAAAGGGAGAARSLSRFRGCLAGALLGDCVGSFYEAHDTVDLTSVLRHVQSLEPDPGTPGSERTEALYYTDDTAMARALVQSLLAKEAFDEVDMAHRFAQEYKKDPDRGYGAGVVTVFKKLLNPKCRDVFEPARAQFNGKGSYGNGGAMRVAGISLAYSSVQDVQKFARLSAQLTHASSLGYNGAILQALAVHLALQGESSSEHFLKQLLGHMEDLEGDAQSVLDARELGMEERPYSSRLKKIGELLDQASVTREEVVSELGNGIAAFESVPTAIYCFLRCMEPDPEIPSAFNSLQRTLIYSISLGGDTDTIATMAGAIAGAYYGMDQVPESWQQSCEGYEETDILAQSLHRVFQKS

PARP-1 [1] = target: T2, PARP-1 (Homo sapiens, UniProt P09874); assay: gel-shift assay for in vitro assessment of PARP-1 activity; type: biochemical
T2 sequence (P09874 whole entry): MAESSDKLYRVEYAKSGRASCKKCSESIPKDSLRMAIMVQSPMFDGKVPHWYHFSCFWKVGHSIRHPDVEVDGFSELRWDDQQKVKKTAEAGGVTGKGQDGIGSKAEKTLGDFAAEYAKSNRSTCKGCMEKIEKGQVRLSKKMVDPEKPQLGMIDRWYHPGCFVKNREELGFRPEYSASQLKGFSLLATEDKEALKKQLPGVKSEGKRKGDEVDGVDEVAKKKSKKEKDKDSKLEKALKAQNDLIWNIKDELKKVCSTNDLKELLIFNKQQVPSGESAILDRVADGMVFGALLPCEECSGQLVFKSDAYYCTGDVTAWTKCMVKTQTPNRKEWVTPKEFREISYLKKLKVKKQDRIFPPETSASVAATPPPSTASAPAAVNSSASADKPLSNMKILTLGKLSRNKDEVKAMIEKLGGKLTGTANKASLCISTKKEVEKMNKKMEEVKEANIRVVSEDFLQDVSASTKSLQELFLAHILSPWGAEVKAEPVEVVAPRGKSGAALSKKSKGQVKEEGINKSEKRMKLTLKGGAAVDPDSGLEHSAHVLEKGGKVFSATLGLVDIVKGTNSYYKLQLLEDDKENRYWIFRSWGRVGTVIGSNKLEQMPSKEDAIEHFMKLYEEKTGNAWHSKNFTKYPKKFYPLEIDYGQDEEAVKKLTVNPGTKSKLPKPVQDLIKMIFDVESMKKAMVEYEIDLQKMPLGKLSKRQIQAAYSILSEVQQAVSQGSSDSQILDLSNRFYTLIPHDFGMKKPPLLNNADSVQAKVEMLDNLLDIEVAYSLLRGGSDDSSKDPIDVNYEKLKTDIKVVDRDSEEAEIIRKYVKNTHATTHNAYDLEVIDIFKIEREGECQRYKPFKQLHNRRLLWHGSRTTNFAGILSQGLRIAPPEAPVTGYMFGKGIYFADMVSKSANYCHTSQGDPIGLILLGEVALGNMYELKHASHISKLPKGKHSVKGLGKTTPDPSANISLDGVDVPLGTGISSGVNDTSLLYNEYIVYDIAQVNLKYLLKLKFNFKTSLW

PARP-1 [2] = target: T2, PARP-1; assay: PET imaging of tracer retention in animal models of tumor radiation therapy; type: in vivo, mice; design: endogenous in cells; host or cells: HeLa xenografts and orthotopic MDA-MB-231 tumours in mice
Text: FIG. 8 illustrates a schematic showing animal studies performed with ^18F-PEG2-NAD (Substrate-based PARP-1 Activity Reporter: ^18F-SuPAR)
FIGS. 9A-9C illustrate the validation of ^18F-SuPAR in mice bearing HeLa tumor xenografts following radiation therapy.
FIGS. 10A-10C illustrate the validation of ^18F-SuPAR in mice bearing orthotopic MDA-MB-231 tumors following radiation therapy.
FIGS. 11A-11D illustrate the validation of PARP-1 as target of ^18F-SuPAR following inhibition by BMN673.
One advantageous tracer probe of the disclosure is an efficient analog of NAD that has been labelled by ^18F-radionuclide for PET imaging. It is contemplated, however, that other radionuclides detectable by PET imaging technology can be used in place of ^18F. Previously unknown relationships between NAD modification and PARP-1 substrate potential have been elucidated to synthesize the tracer, 6N-(triazo-PEG2-^18F)-NAD. This tracer was validated for PARP-1 activity in vivo in two animal models of tumor radiation therapy. […] Results were confirmed ex vivo by autoradiography and immunofluorescence analysis of tumor sections.

Sequence of PARG (Q86W56 whole entry, species assumed): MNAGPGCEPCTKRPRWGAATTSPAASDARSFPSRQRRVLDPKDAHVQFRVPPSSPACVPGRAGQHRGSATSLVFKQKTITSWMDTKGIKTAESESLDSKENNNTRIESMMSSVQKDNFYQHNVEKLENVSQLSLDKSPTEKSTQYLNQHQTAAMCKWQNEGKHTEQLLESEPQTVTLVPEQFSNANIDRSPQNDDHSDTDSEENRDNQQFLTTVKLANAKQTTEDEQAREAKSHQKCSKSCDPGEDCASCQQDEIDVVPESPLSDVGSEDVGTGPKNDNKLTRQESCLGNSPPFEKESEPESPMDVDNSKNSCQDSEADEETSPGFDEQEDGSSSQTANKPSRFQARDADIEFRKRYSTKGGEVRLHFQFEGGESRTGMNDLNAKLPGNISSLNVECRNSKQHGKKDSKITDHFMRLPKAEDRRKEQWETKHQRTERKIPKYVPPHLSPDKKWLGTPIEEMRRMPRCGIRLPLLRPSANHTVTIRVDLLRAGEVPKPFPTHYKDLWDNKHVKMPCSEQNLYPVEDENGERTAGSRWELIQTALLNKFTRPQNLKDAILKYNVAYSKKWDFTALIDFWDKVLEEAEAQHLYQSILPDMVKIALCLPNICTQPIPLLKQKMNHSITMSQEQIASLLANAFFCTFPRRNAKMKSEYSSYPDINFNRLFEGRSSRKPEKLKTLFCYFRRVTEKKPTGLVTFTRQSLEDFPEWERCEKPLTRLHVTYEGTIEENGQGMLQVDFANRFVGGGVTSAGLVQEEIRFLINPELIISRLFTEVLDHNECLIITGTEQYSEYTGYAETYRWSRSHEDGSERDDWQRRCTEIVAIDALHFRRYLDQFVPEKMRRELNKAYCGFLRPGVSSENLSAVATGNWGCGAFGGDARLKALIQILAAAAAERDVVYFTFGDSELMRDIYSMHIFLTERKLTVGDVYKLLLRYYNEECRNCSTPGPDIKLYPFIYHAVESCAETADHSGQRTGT

`NC(=O)c1ccc[n+]([C@@H]2O[C@H](COP(=O)(O)OP(=O)(O)OC[C@H]3O[C@@H](n4cnc5c(NCc6cn(CCOCCOCCF)nn6)ncnc54)[C@H](O)[C@@H]3O)[C@@H](O)[C@H]2O)c1` [LCD67] was tested, and the “degradation by PARG” value (PARG) was “resistance to degradation” and the “degradation by ARH3” value (ARH3) was “resistance to degradation”.
For `Nc1cccc2c(=O)[nH][nH]c(=O)c12` [luminol, reference compound], the “inhibition of PARP-1” value (PARP-1 [1]; gel, FIG. 2A) was “inhibits PARP-1”.
With `C#CCNc1ncnc2c1ncn2[C@@H]1O[C@H](COP(=O)(O)OP(=O)(O)OC[C@H]2O[C@@H]([n+]3cccc(C(N)=O)c3)[C@H](O)[C@@H]2O)[C@@H](O)[C@H]1O` [LCD11, Nicotinamide 6-N-propargyladenine dinucleotide] the “incorporation into high molecular weight PAR” value (PARP-1 [1]; low percentage ratios of alkyne probe to NAD, FIG. 6B) was “incorporation into high molecular weight PAR occurs”.
For `NC(=O)c1ccc[n+](C2OC(COP(=O)(O)OP(=O)(O)OCC3OC(n4cnc5c(NCc6cn(COCC[18F])nn6)ncnc54)C(O)C3O)C(O)C2O)c1` (stereo not shown) [6N-(triazo-PEG2-^18F)-NAD], the “tracer retention with increasing doses of radiation” value (PARP-1 [2]; 0, 5, 10 Gy, two animal models of tumor radiation therapy) was “dose-dependence of tracer retention was observed”, the “probe target verification using a highly potent PARP-1 inhibitor” value (PARP-1 [2]; in vivo, confirmed ex vivo by autoradiography and immunofluorescence) was “verified as PARP-1” and the “time-dependence of maximal tracer uptake” value (PARP-1 [2]; two animal models of tumor radiation therapy) was “tumor-type specific”.
